Read-outs that look alike come from different tables or passages of the source.
Tests used:
human 5-HT2A receptor [1] = biological target: T1, human 5-HT2A receptor (Homo sapiens (Human), UniProt P28223); assay: 5HT2A competitive binding assay (Eurofins Cerep)
Description: The compound is approximately equipotent to psilocybin based on data from the http:/PDSP.unc.edu/databases/pdsp.php.

5HT2B receptor [2] = biological target: T2, 5HT2B receptor (Homo sapiens, UniProt P41595); assay: 5HT2B competitive binding assay
T2 sequence (P41595 whole entry): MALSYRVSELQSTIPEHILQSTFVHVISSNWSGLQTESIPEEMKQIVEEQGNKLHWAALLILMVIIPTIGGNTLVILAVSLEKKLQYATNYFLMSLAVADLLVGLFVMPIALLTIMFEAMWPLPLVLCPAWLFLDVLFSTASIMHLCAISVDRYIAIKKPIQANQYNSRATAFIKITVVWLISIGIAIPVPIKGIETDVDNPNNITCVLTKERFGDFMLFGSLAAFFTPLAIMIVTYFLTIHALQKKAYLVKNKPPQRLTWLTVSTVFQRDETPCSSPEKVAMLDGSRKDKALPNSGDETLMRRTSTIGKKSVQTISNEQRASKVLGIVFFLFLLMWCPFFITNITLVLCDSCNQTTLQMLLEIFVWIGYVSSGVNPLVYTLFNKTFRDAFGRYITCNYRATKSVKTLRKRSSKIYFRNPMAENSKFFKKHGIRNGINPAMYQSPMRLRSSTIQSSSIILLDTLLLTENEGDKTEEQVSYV

5HT2B receptor [3] = biological target: T2, 5HT2B receptor; assay: 5HT2B functional antagonist assay; format: cell-based
Protocol: Quantification of myo-Inositol-1-phosphate was performed using HTRF.

5HT2C receptor [4] = biological target: T3, 5HT2C receptor (Homo sapiens, UniProt P28335); details: phosphoinositol hydrolysis; read-out: Agonist potency at human 5-HT2C receptor; cited from earlier work
T3 sequence (P28335 33-458 limits assumed): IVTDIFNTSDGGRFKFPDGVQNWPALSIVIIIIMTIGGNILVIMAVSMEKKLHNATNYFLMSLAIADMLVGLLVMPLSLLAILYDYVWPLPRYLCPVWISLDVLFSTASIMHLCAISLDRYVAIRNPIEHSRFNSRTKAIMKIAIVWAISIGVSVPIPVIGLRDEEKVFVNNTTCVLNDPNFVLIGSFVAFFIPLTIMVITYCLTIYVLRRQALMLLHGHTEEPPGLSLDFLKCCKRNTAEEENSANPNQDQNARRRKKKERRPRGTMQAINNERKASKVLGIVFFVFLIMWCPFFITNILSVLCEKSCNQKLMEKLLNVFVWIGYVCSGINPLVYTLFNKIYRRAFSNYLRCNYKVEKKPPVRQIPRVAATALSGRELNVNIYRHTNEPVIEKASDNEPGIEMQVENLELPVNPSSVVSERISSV

5HT2C receptor [5] = details: binding Ki ratio
human 5-HT2A receptor [6] = biological target: T1, human 5-HT2A receptor; assay: 5HT2A functional assay (agonism); format: cell-based
5HT2C receptor [7] = biological target: T3, 5HT2C receptor; assay: biochemical
Adrenergic Alpha 1A = Adrenergic Alpha 1A (Homo sapiens (Human), UniProt P35348); assay: Functional GCPR assay, inhibition, Adrenergic Alpha 1A; format: cell-based; details: read-out: IC50 (A1A) inhibition in functional GCPR assay
Sequence of Adrenergic Alpha 1A (P35348 whole entry): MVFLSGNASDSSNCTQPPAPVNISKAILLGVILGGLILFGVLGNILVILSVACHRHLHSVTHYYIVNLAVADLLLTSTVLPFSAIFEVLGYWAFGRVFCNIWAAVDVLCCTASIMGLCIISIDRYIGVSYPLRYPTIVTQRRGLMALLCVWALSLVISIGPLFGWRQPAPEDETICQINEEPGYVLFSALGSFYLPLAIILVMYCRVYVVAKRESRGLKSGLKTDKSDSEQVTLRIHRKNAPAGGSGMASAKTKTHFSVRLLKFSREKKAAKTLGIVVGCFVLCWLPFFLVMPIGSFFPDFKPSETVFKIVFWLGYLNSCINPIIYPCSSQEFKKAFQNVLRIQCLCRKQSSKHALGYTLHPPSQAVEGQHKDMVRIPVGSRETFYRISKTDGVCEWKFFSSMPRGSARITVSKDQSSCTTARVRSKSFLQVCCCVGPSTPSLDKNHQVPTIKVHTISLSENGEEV

5HT2B receptor [8] = biological target: T2, 5HT2B receptor; assay: 5HT2B (IP1) functional agonist assay; format: cell-based
Adrenergic Alpha 2A = Adrenergic Alpha 2A (Homo sapiens (Human), UniProt P08913); assay: Functional GCPR assay, inhibition, Adrenergic Alpha 2A; format: cell-based; details: read-out: IC50 (A2A) inhibition in functional GCPR assay
Sequence of Adrenergic Alpha 2A (P08913 whole entry): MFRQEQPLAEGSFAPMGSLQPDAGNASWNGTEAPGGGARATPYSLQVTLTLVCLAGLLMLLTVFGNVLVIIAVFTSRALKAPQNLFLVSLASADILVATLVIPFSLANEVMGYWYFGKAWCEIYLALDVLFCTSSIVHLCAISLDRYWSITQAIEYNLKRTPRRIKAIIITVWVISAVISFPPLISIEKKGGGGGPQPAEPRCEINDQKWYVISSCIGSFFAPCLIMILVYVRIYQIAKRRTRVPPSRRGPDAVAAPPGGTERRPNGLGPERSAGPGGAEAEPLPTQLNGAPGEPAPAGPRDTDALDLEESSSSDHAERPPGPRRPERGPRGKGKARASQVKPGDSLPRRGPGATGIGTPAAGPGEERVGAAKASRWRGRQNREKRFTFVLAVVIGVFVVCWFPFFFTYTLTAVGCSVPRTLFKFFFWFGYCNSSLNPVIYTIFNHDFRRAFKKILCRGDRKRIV

human recombinant 5-HT1A = human recombinant 5-HT1A (Homo sapiens (Human), UniProt P08908); assay: 5HT1A competitive binding assay (Eurofins Cerep); details: for Ki: [3H]8-OHDPAT 0.5 nM, HEK-293, Cheng Prusoff, read-out: 5HT1A binding constant Ki
[9] = Pharmacokinetics after i.v. administration in rats; format: in vivo; details: plasma, iv; rat, i.v. 1.0 mg/kg
Protocol: (§1) The compound of Example 1 was dispersed in water containing phosphate buffered saline at a rate of 1 mg/ml and then acidified to pH 4 to create a solution. The solution was administered to each of 3 rats (ca. 300 g each) at a rate of 1.0 mg/kg (ca. dose 0.33 ml, […]) via a catheter placed in the jugular vein. Animals were observed over a period of 12 h with counting the cumulative number head-twitch actions over each 10 min up to 2 hours and then for 10 min each at 3, 3.5 and 4 hours. Blood samples (0.25 ml) were collected via the catheter using 1 ml syringes into 0.8 ml K2EDTA tubes at 0.0833, 0.25, 0.5, 0.75, 1, 2, 4, 6 hours after the dose and placed on wet ice until processing. Psychological saline (0.25 ml) was reinjected after each blood draw via the catheter to the animal to flush the catheter and replenish blood volumes. The blood samples collected were centrifuged (3200 g, 5 min, 4 C) within 5 min of collection and the plasma recovered and placed in a cryovial and frozen in liquid nitrogen and stored at −80 C thereafter until analysis. A bioanalytical method was developed to quantify the compound in plasma using a Sciex 6500 Q-trap MSMS equipped with a standard LC system and after calibration with the compound of the example.

rats = assay: Head-twitch counting during rat i.v. PK experiment; format: in vivo; details: i.v. 1.0 mg/kg, duration of PK experiment
Protocol: as §1

patients = details: cited from earlier work
[10] = test system: patients with alcohol dependence; details: 10 patients with alcohol dependence; cited from earlier work
cancer patients = details: high-dose, 6-month follow-up; cited from earlier work
[11] = test system: participants with tobacco addiction; details: cited from earlier work
[12] = 2A Binding, Table 1, all units nM
[13] = Table 1, all units nM, read-out: 2A Binding
[14] = Table 1, all units nM, read-out: 2B Binding
[15] = Table 1, all units nM, read-out: 2B IC50 Functional Antagonist
[16] = 125I-DOI 0.2 nM, CHO cells, Cheng Prusoff, read-out: 5HT2B binding constant Ki
[17] = Table 1, all units nM, read-out: 2B EC50 Functional Agonist

## COc1ccc2[nH]cc(CCN(C)Cc3c(OC)cccc3OC)c2c1 [A, reference compound]
Human 5-HT2A receptor [1]; [12]
  Ki: 1600 nM
5HT2B receptor [2]
  Ki: 402 nM
5HT2B receptor [3]
  IC50: > 10000 nM

## COc1cc(OC)c(CN(CCc2c[nH]c3ccc(OC)cc23)C(C)C)c(OC)c1 [B, reference compound]
Human 5-HT2A receptor [1]; [13]
  Ki: 4600 nM
5HT2B receptor [2]; [14]
  Ki: 4930 nM
5HT2B receptor [3]; [15]
  IC50: > 10000 nM

## COc1ccc2[nH]cc(CCN(C)Cc3cc(OC)c(OC)c(OC)c3)c2c1 [C, reference compound]
Human 5-HT2A receptor [1]; [12]
  Ki: 340 nM
5HT2B receptor [2]
  Ki: 76 nM
5HT2B receptor [3]
  IC50: 2050 nM

## CCCCn1cc(CCN(C)C)c2c(O)cccc21 [Compound 6]
5HT2C receptor [4]
  EC50: ~600 nM

## COc1ccc2[nH]cc(CCN(C)Cc3ccccc3OC)c2c1 [Example 1]
5HT2C receptor [5]
  Selectivity for 5HT2A over 5HT2C (Ki): about 6 fold
Human 5-HT2A receptor [6]; HEK-293
  EC50: 520 nM
Human 5-HT2A receptor [6]; at the highest concentrations, read-out: 5HT2A maximum efficacy
  Emax: 80%
5HT2C receptor [7]
  Ki: 680 nM
Adrenergic Alpha 1A
  IC50: 1800 nM
5HT2B receptor [8]; CHO cells, HTRF, serotonin 1 uM control
  5HT2B functional agonist EC50 (IP1): could not be determined for lack of activity
Adrenergic Alpha 2A
  IC50: 1700 nM
Human recombinant 5-HT1A
  Ki: 540 nM
Human recombinant 5-HT1A; binding Ki ratio
  Selectivity for 5HT2A over 5HT1A (Ki): about 5 fold
[9]
  half-life: 1.1 h
5HT2B receptor [2]; [16]
  Ki: 180 nM
rats
  Head twitch activity: no significant head twitch activity
5HT2B receptor [3]; CHO cells, background serotonin 10 uM, read-out: 5HT2B functional antagonist IC50
  IC50: < 10000 nM
5HT2B receptor [3]; relative to serotonin
  5HT2B functional mode (antagonist): full antagonist

## COc1cccc(CN(C)CCc2c[nH]c3ccccc23)c1 [Example 10]
Human 5-HT2A receptor [1]; 125I-DOI 0.1 nM, HEK-293, Cheng Prusoff, read-out: 5HT2A binding constant Ki
  Ki: 14 nM
5HT2C receptor [7]
  Ki: 42 nM
5HT2B receptor [8]; Example 10, read-out: 5HT2B functional agonist mode IC50
  IC50: 1050 nM
5HT2B receptor [8]; up to 30 uM
  5HT2B functional agonist mode efficacy: < 20%
Human recombinant 5-HT1A
  Ki: 510 nM
5HT2B receptor [2]; [16]
  Ki: 380 nM

## CCN(CCc1c[nH]c2ccc(OC)cc12)Cc1ccccc1OC [Example 11, N-ethyl-2-(5-methoxy-1H-indol-3-yl)-N-(2-methoxybenzyl)ethan-1-amine]
Human 5-HT2A receptor [1]; [12]
  Ki: 170 nM
5HT2B receptor [8]
  EC50: > 10000 nM
5HT2B receptor [2]
  Ki: 173 nM

## COc1ccc2[nH]cc(CCN(Cc3ccccc3OC)C(C)C)c2c1 [Example 12, N-(2-(5-methoxy-1H-indol-3-yl)ethyl)-N-(2-methoxybenzyl)propan-2-amine]
Human 5-HT2A receptor [1]; [13]
  Ki: 277 nM
5HT2B receptor [8]; [17]
  EC50: > 10000 nM
5HT2B receptor [2]; [14]
  Ki: 341 nM

## C=CCN(CCc1c[nH]c2ccc(OC)cc12)Cc1ccccc1OC [Example 13, N-(2-(5-methoxy-1H-indol-3-yl)ethyl)-N-(2-methoxybenzyl)prop-2-en-1-amine]
Human 5-HT2A receptor [1]; [13]
  Ki: 76 nM
5HT2B receptor [8]; [17]
  EC50: > 10000 nM
5HT2B receptor [2]; [14]
  Ki: 73 nM
5HT2B receptor [3]; [15]
  IC50: > 10000 nM

## COc1ccc(CN(C)CCc2c[nH]c3ccccc23)cc1 [Example 14, 2-(1H-indol-3-yl)-N-(4-methoxybenzyl)-N-methylethan-1-amine]
Human 5-HT2A receptor [1]; [13]
  Ki: 280 nM
5HT2B receptor [2]; [14]
  Ki: 69 nM
5HT2B receptor [3]; [15]
  IC50: 1670 nM

## COc1cccc(CN(C)CCc2c[nH]c3ccccc23)c1OC [Example 15, N-(2,3-dimethoxybenzyl)-2-(H-indol-3-yl)-N-methylethan-1-amine]
Human 5-HT2A receptor [1]; [12]
  Ki: 274 nM
5HT2B receptor [2]
  Ki: 48 nM
5HT2B receptor [3]
  IC50: 1370 nM

## COc1cccc(CN(CCc2c[nH]c3ccccc23)C(C)C)c1OC [Example 16, N-(2-(1H-indol-3-yl)ethyl)-N-(2,3-dimethoxybenzyl)prop-2-an-1-amine]
Human 5-HT2A receptor [1]; [13]
  Ki: 2630 nM
5HT2B receptor [8]; [17]
  EC50: > 10000 nM
5HT2B receptor [2]; [14]
  Ki: 313 nM
5HT2B receptor [3]; [15]
  IC50: > 10000 nM

## CN(CCc1c[nH]c2ccccc12)Cc1ccccc1 [Example 17, N-(2-(1H-indol-3-yl)ethyl)-N-(benzyl)methan-1-amine]
Human 5-HT2A receptor [1]; [13]
  Ki: 60 nM
5HT2B receptor [2]; [14]
  Ki: 45 nM
5HT2B receptor [3]; [15]
  IC50: > 10000 nM

## C/C=C\CN(CCc1c[nH]c2ccccc12)Cc1cccc(OC)c1 [Example 19, (Z)—N-(2-(1H-indol-3-yl)ethyl)-N-(3-methoxybenzyl)but-2-en-1-amine]
Human 5-HT2A receptor [1]; [13]
  Ki: 31 nM
5HT2B receptor [8]; [17]
  EC50: > 10000 nM
5HT2B receptor [2]; [14]
  Ki: 44 nM
5HT2B receptor [3]; [15]
  IC50: 3380 nM

## C=C(C)CN(CCc1c[nH]c2ccccc12)Cc1cccc(OC)c1 [Example 20, N-(2-(1H-indol-3-yl)ethyl)-N-(3-methoxybenzyl)2-methylprop-2-en-1-amine]
Human 5-HT2A receptor [1]; [13]
  Ki: 135 nM

## CCc1cccc(CN(C)CCc2c[nH]c3ccccc23)c1 [Example 21, 2-(1H-indol-3-yl)-N-(3-ethylbenzyl)-N-methylethan-1-amine]
Human 5-HT2A receptor [1]; [13]
  Ki: 5 nM
5HT2B receptor [3]; [15]
  IC50: 687 nM

## CN(CCc1c[nH]c2ccccc12)Cc1cccc(O)c1 [Example 22, 3-(((2-(1H-indol-3-yl)ethyl)(methyl)amino)methyl)phenol]
Human 5-HT2A receptor [1]; [12]
  Ki: 35 nM
5HT2B receptor [2]
  Ki: 31 nM
5HT2B receptor [3]
  IC50: > 10000 nM

## CN(CCc1c[nH]c2ccccc12)Cc1cccc(Br)c1 [Example 23, N-(3-bromobenzyl)-2-(1H-indol-3-yl)-N-methylethan-1-amine]
Human 5-HT2A receptor [1]; [13]
  Ki: 11 nM
5HT2B receptor [2]; [14]
  Ki: 22 nM
5HT2B receptor [3]; [15]
  IC50: 1620 nM

## CN(CCc1c[nH]c2ccccc12)Cc1cccc(CO)c1 [Example 24, N-(2-(1H-indol-3-yl)ethyl)-N-(3-hydroxymethylbenzyl)methan-1-amine]
Human 5-HT2A receptor [1]; [13]
  Ki: 59 nM
5HT2B receptor [2]; [14]
  Ki: 50 nM
5HT2B receptor [3]; [15]
  IC50: 6990 nM

## C#Cc1cccc(CN(C)CCc2c[nH]c3ccccc23)c1 [Example 25, 2-(1H-indol-3-yl)-N-(3-ethynylbenzyl)-N-methylethan-1-amine]
Human 5-HT2A receptor [1]; [13]
  Ki: 6 nM
5HT2B receptor [8]; [17]
  EC50: 163 nM
5HT2B receptor [2]; [14]
  Ki: 13 nM
5HT2B receptor [3]; [15]
  IC50: 2560 nM

## CN(CCc1c[nH]c2ccccc12)Cc1cccc2c1OCO2 [Example 26]
Human 5-HT2A receptor [1]; [13]
  Ki: 73 nM
5HT2B receptor [2]; [14]
  Ki: 60 nM
5HT2B receptor [3]; [15]
  IC50: 1090 nM

## COc1cccc(CN(C)CCc2c[nH]c3ccc(OC)cc23)c1 [Example 27, 2-(5-methoxy-1H-indol-3-yl)-N-(3-methoxybenzyl)-N-methylethan-1-amine]
Human 5-HT2A receptor [1]; [12]
  Ki: 16 nM
5HT2B receptor [2]
  Ki: 16 nM

## COc1ccccc1CN(C)CCc1c[nH]c2ccccc12 [Example 28, 2-(1H-indol-3-yl)-N-(2-methoxybenzyl)-N-methylethan-1-amine]
Human 5-HT2A receptor [1]; [12]
  Ki: 130 nM
5HT2B receptor [2]
  Ki: 253 nM

## C=CCN(CCc1c[nH]c2ccccc12)Cc1cccc(OC)c1 [Example 29, N-(2-(1H-indol-3-yl)ethyl)-N-(3-methoxybenzyl)prop-2-en-1-amine]
Human 5-HT2A receptor [1]; [13]
  Ki: 28 nM
5HT2B receptor [2]; [14]
  Ki: 21 nM

## C[C@H]1CNCCc2ccc(Cl)cc21 [Locaserin]
patients
  Risk of cardiac valvulopathy: no increased risk of cardiac valvulopathy

## CN(C)CCc1c[nH]c2cccc(OP(=O)(O)O)c12 [psilocybin]
[10]
  Alcohol use post administration: significant decrease in alcohol use
Cancer patients
  Participants continuing to show clinically significant decreases in depressed mood and anxiety: about 80%
[11]; 2.5 years after the target quit date
  Participants abstinent: 75%
[11]; 6-month follow up
  Participants with biologically verified 7-day point-prevalence abstinence: eighty
[11]; 12-month follow-up
  Participants biologically verified as abstinent: 67%
